Reference: patent US12637717B2, “Method for treating and predicting prognosis of gastric cancer patient by calculating RNA expression with logistic regression” (National Yang Ming Chiao Tung University, priority 2022, dated 2026)

Legend:
Assay type in all cases: cell-based, human
Hs746T = assay: cell viability of diffuse-type GC cell line Hs746T after inhibitor treatment; conditions: 2.5 μM, 5 μM and 10 μM, triplicate
Text: (§1) The potential tumor antigens (pTAs) expression and signaling pathways were validated in vitro. To validate the association of pTAs with the EMT-like subtype of gastric cancer, the pTAs expression at intestinal-type and diffuse-type GC cell lines were investigated by western blotting. The human GC cell line AGS was obtained from American Type Culture Collection (ATCC) CRL-1739™, and Hs746T was obtained from ATCC HTB-135™, and SNU-1 was obtained from ATCC CRL5971™. Hs746T and SNU-1 were diffuse-type GC cell lines; AGS was an intestinal type GC cell line.
(§2) Therefore, two inhibitors (SB431542 and GDC-0449 (Vismodegib)) were used to validate whether the TGF-β and hedgehog signaling pathways were activated in diffuse-type GC cell lines, respectively. The experiments were performed in triplicate.

SNU-1 = assay: cell viability of diffuse-type GC cell line SNU-1 after inhibitor treatment; conditions: 2.5 μM, 5 μM and 10 μM, triplicate
Text: as §1, §2

AGS = assay: cell viability of intestinal type GC cell line AGS after inhibitor treatment; conditions: for cell viability (inhibiting effect): 2.5 μM, 5 μM and 10 μM, triplicate
Text: as §1, §2

Row | SMILES | cell viability (Hs746T) | cell viability (SNU-1) | cell viability (inhibiting effect) (AGS) | effect on proliferation (AGS; concentrations of 2.5 μM and 5 μM)
1 | CS(=O)(=O)c1ccc(C(=O)Nc2ccc(Cl)c(-c3ccccn3)c2)c(Cl)c1 [GDC-0449, Vismodegib] | significantly decreased | significantly decreased | did not have significant effects of inhibiting | effects of promoting proliferation
2 | NC(=O)c1ccc(-c2nc(-c3ccc4c(c3)OCO4)c(-c3ccccn3)[nH]2)cc1 [SB431542] | significantly decreased | significantly decreased | did not have significant effects of inhibiting | 
